This is an account of results in US9365522B2, “Pyrazole amide derivative” (AMGEN INC., priority 2015, dated 2016).

The assay addresses T1, ligand binding domain of human ROR gamma (Homo sapiens, UniProt P51449).
T1 construct: NM_001001523; expressed in transfected cells; host or cells: HEK293T
T1 sequence (P51449 247-497 isoform P51449-2): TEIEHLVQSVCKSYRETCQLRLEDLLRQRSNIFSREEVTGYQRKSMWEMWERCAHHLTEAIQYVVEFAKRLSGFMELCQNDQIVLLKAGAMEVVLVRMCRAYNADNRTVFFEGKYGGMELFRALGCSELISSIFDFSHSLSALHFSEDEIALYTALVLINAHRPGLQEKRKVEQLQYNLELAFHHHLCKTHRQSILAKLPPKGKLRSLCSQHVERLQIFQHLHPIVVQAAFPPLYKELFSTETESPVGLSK
Briefly: ROR gamma reporter gene assay (GAL4-RORγ LBD luciferase, Dual-Glo). The following applies: HEK293T cells transfected with pM-ROR gamma, 8 concentrations 3.5 nM to 10.5 μM, 24 h incubation; read-out: result (pIC50, inhibition of RORγ transcriptional activity) (converted). It is filed as cell-based. A digest of the protocol:
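HEK293T cells co-transfected with GAL4-DBD fused to human RORγ LBD (aa 247-497), 5×UAS firefly luciferase reporter and CMV-renilla, in charcoal-stripped serum.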

`O=C(CN(CC1(C(F)(F)F)CC1)C(=O)c1cnn([C@H]2CC[C@H](C(=O)O)CC2)c1C(F)(F)F)c1c(Cl)cncc1Cl` [Example 150, trans-4-(4-((2-(3,5-dichloropyridin-4-yl)-2-oxoethyl)-((1-(trifluoromethyl)cyclopropyl)methyl)carbamoyl)-5-(trifluoromethyl)pyrazol-1-yl)cyclohexane-1-carboxylic acid]: the IC50 was 53700 pM.

In the case of `O=C(CN(Cc1ccnnc1)C(=O)c1cnn([C@H]2CC[C@H](C(=O)O)CC2)c1C(F)(F)F)c1c(Cl)cccc1Cl` [Example 151, trans-4-(4-((2-(2,6-dichlorophenyl)-2-oxoethyl)-(pyridazin-4-ylmethyl)carbamoyl)-5-(trifluoromethyl)pyrazol-1-yl)cyclohexane-1-carboxylic acid], the IC50 is 8.13e+06 pM.

`O=C(CN(Cc1cc(F)cc(F)c1)C(=O)c1cnn([C@H]2CC[C@H](C(=O)O)CC2)c1C(F)(F)F)c1ncc(C(F)(F)F)cc1Cl` [Example 152, trans-4-(4-((2-(3-chloro-5-(trifluoromethyl)pyridin-2-yl)-2-oxoethyl)-((3,5-difluorophenyl)methyl)carbamoyl)-5-(trifluoromethyl)pyrazol-1-yl)cyclohexane-1-carboxylic acid]: the IC50 is 2.82e+06 pM.

`O=C(CN(Cc1cccc(O)c1)C(=O)c1cnn([C@H]2CC[C@H](C(=O)O)CC2)c1C(F)(F)F)c1c(Cl)cncc1Cl` [Example 153, trans-4-(4-((2-(3,5-dichloropyridin-4-yl)-2-oxoethyl)-((3-hydroxyphenyl)methyl)carbamoyl)-5-(trifluoromethyl)pyrazol-1-yl)cyclohexane-1-carboxylic acid]: the IC50 is 209000 pM.

As to `CN1CCC(CN(CC(=O)c2c(Cl)cncc2Cl)C(=O)c2cnn([C@H]3CC[C@H](C(=O)O)CC3)c2C(F)(F)F)CC1` [Example 154, trans-4-(4-((2-(3,5-dichloropyridin-4-yl)-2-oxoethyl)-((1-methylpiperidin-4-yl)methyl)carbamoyl)-5-(trifluoromethyl)pyrazol-1-yl)cyclohexane-1-carboxylic acid], the IC50 is greater than 1e+07 pM.

`CC(C)(C)O[C@H]1C[C@@H](N(CC(=O)c2c(Cl)cncc2Cl)C(=O)c2cnn([C@H]3CC[C@H](C(=O)O)CC3)c2C(F)(F)F)C1` [Example 155, trans-4-(4-((2-(3,5-dichloropyridin-4-yl)-2-oxoethyl)-(3-((2-methylpropan-2-yl)oxy)cyclobutyl)carbamoyl)-5-(trifluoromethyl)pyrazol-1-yl)cyclohexane-1-carboxylic acid]: the IC50 is 5.13e+06 pM.

Regarding `CC[C@]1(C(=O)O)CC[C@H](n2ncc(C(=O)N(CC(=O)c3c(Cl)cncc3Cl)Cc3cc(F)cc(F)c3)c2C(F)(F)F)CC1` [Example 156, trans-4-(4-((2-(3,5-dichloropyridin-4-yl)-2-oxoethyl)-((3,5-difluorophenyl)methyl)carbamoyl)-5-(trifluoromethyl)pyrazol-1-yl)-1-ethylcyclohexane-1-carboxylic acid], the IC50 was 1.02e+06 pM.

`O=C1CC[C@@H](CN(CC(=O)c2c(Cl)cncc2Cl)C(=O)c2cnn([C@H]3CC[C@H](C(=O)O)CC3)c2C(F)(F)F)N1` [Example 157, trans-4-(4-((2-(3,5-dichloropyridin-4-yl)-2-oxoethyl)-(((2S)-5-oxopyrrolidin-2-yl)methyl)carbamoyl)-5-(trifluoromethyl)pyrazol-1-yl)cyclohexane-1-carboxylic acid]: the IC50 was greater than 1e+07 pM.

As to `O=C1CC[C@H](CN(CC(=O)c2c(Cl)cncc2Cl)C(=O)c2cnn([C@H]3CC[C@H](C(=O)O)CC3)c2C(F)(F)F)N1` [Example 158, trans-4-(4-((2-(3,5-dichloropyridin-4-yl)-2-oxoethyl)-(((2R)-5-oxopyrrolidin-2-yl)methyl)carbamoyl)-5-(trifluoromethyl)pyrazol-1-yl)cyclohexane-1-carboxylic acid], the IC50 is greater than 1e+07 pM.

Take `O=C(CN(Cc1cc(F)cc(F)c1)C(=O)c1cnn([C@H]2CC[C@H](C(=O)O)CC2)c1CO)c1c(Cl)cncc1Cl` [Example 159, trans-4-(4-((2-(3,5-dichloropyridin-4-yl)-2-oxoethyl)-((3,5-difluorophenyl)methyl)carbamoyl)-5-(hydroxymethyl)pyrazol-1-yl)cyclohexane-1-carboxylic acid]: the IC50 is greater than 1e+07 pM.

In the case of `CC12CCC(CN(CC(=O)c3c(Cl)cncc3Cl)C(=O)c3cnn([C@H]4CC[C@H](C(=O)O)CC4)c3C(F)(F)F)(CC1)O2` [Example 160, trans-4-(4-((2-(3,5-dichloropyridin-4-yl)-2-oxoethyl)-((1-methyl-7-oxabicyclo[2.2.1]heptan-4-yl)methyl)carbamoyl)-5-(trifluoromethyl)pyrazol-1-yl)cyclohexane-1-carboxylic acid], the IC50 is 24500 pM.

For `O=C(CN(C(=O)c1cnn([C@H]2CC[C@H](C(=O)O)CC2)c1C(F)(F)F)[C@H]1C[C@@H]1c1ccccc1)c1c(Cl)cncc1Cl` [Example 161, trans-4-(4-((2-(3,5-dichloropyridin-4-yl)-2-oxoethyl)-((1S,2R)-2-phenylcyclopropyl)carbamoyl)-5-(trifluoromethyl)pyrazol-1-yl)cyclohexane-1-carboxylic acid], the IC50 is 2.19e+06 pM.

As for `CC(C)c1c(C(=O)N(CC(=O)c2c(Cl)cncc2Cl)Cc2cc(F)cc(F)c2)cnn1[C@H]1CC[C@H](C(=O)O)CC1` [Example 162, trans-4-(4-((2-(3,5-dichloropyridin-4-yl)-2-oxoethyl)-((3,5-difluorophenyl)methyl)carbamoyl)-5-propan-2-ylpyrazol-1-yl)cyclohexane-1-carboxylic acid], the IC50 is 1.02e+06 pM.

On to `NCc1c(C(=O)N(CC(=O)c2c(Cl)cncc2Cl)Cc2cc(F)cc(F)c2)cnn1[C@H]1CC[C@H](C(=O)O)CC1` [Example 163, trans-4-(5-(aminomethyl)-4-((2-(3,5-dichloropyridin-4-yl)-2-oxoethyl)-((3,5-difluorophenyl)methyl)carbamoyl)pyrazol-1-yl)cyclohexane-1-carboxylic acid], for which the IC50 was greater than 1e+07 pM.

Turning to `Cc1c(C(=O)N(CC(=O)c2c(Cl)cncc2Cl)Cc2cc(F)cc(F)c2)cnn1[C@H]1CC[C@H](C(=O)O)CC1` [Example 164, trans-4-(4-((2-(3,5-dichloropyridin-4-yl)-2-oxoethyl)-((3,5-difluorophenyl)methyl)carbamoyl)-5-methylpyrazol-1-yl)cyclohexane-1-carboxylic acid], the IC50 was 1.17e+06 pM.

Consider `O=C(CN(Cc1nc(Cl)cs1)C(=O)c1cnn([C@H]2CC[C@H](C(=O)O)CC2)c1C(F)(F)F)c1c(Cl)cncc1Cl` [Example 165, trans-4-(4-((4-chloro-1,3-thiazol-2-yl)methyl-(2-(3,5-dichloropyridin-4-yl)-2-oxoethyl)carbamoyl)-5-(trifluoromethyl)pyrazol-1-yl)cyclohexane-1-carboxylic acid], for which the IC50 is 1.17e+06 pM.

In the case of `O=C(CN(Cc1ccc(F)cc1)C(=O)c1cnn(C23CCC(C(=O)O)(CC2)CC3)c1C(F)(F)F)c1c(Cl)cncc1Cl` [Example 166, 4-(4-((2-(3,5-dichloropyridin-4-yl)-2-oxoethyl)-((4-fluorophenyl)methyl)carbamoyl)-5-(trifluoromethyl)pyrazol-1-yl)bicyclo[2.2.2]octane-1-carboxylic acid], the IC50 was 15500 pM.

With `O=C(CN(Cc1csc(Cl)n1)C(=O)c1cnn([C@H]2CC[C@H](C(=O)O)CC2)c1C(F)(F)F)c1c(Cl)cncc1Cl` [Example 167, trans-4-(4-((2-chloro-1,3-thiazol-4-yl)methyl-(2-(3,5-dichloropyridin-4-yl)-2-oxoethyl)carbamoyl)-5-(trifluoromethyl)pyrazol-1-yl)cyclohexane-1-carboxylic acid], the IC50 was 331000 pM.

As to `O=C(CN(Cc1ncc(Cl)s1)C(=O)c1cnn([C@H]2CC[C@H](C(=O)O)CC2)c1C(F)(F)F)c1c(Cl)cncc1Cl` [Example 168, trans-4-(4-((5-chloro-1,3-thiazol-2-yl)methyl-(2-(3,5-dichloropyridin-4-yl)-2-oxoethyl)carbamoyl)-5-(trifluoromethyl)pyrazol-1-yl)cyclohexane-1-carboxylic acid], the IC50 was 148000 pM.

For the compound `CC1(C)CCC(N(CC(=O)c2c(Cl)cncc2Cl)C(=O)c2cnn([C@H]3CC[C@H](C(=O)O)CC3)c2C(F)(F)F)CC1` [Example 169, trans-4-(4-((2-(3,5-dichloropyridin-4-yl)-2-oxoethyl)-(4,4-dimethylcyclohexyl)carbamoyl)-5-(trifluoromethyl)pyrazol-1-yl)cyclohexane-1-carboxylic acid], the IC50 was 40700 pM.

For `N#Cc1cccc(CN(CC(=O)c2c(Cl)cncc2Cl)C(=O)c2cnn([C@H]3CC[C@H](C(=O)O)CC3)c2C(F)(F)F)c1` [Example 170, trans-4-(4-((3-cyanophenyl)methyl-(2-(3,5-dichloropyridin-4-yl)-2-oxoethyl)carbamoyl)-5-(trifluoromethyl)pyrazol-1-yl)cyclohexane-1-carboxylic acid], the IC50 is 178000 pM.

For the compound `N#Cc1ccc(CN(CC(=O)c2c(Cl)cncc2Cl)C(=O)c2cnn([C@H]3CC[C@H](C(=O)O)CC3)c2C(F)(F)F)cc1` [Example 171, trans-4-(4-((4-cyanophenyl)methyl-(2-(3,5-dichloropyridin-4-yl)-2-oxoethyl)carbamoyl)-5-(trifluoromethyl)pyrazol-1-yl)cyclohexane-1-carboxylic acid], the IC50 is 166000 pM.
